One test concerns DU145 cells. The experiment in a line: Growth inhibition, CellTiter-Glo 2.0 (ATP). As to conditions: DU145 (prostate), 10 ng ml^−1 each, 6 days. Type of test: cell-based, human. On the procedure:
(§1) Parental and CRISPR-edited tumour cells were seeded in a cell density of 1800 (DU145), 2000 (PC-3), or 10,000 (MCF7) per well in 96-well CellCarrier plate (PelkinElmer, #6005550) filled with 50 µl culture media + 10% FBS. After 20–24 h incubation, the cells were treated with 10 ng ml^−1 of recombinant human IFNγ (R&D Systems, 285-IF-100), 10 ng ml^−1 of recombinant human TNFα (R&D Systems, 210-TA-020/CF) or a combination of both, by adding an equal volume of the complete culture media containing the cytokines. After incubating for 6 days without media change, the CellTiter-Glo 2.0 (Promega, G9243) or CellTiter-Fluor (Promega, G6082) assay were performed according to manufacturer’ instructions. The luminescence or fluorescence (Ex: 380–400 nm, Em: 505 nm) were detected by Inifinte M1000 PRO (Tecan). For CellTiter-Fluor, triplicate wells without cells were included to determine background fluorescence and the signal average was used for background substraction.

The next test deals with PC-3 cells. The experiment in a line: Growth inhibition, CellTiter-Glo 2.0 (ATP). Format: cell-based, human. The settings on record: PC-3 (prostate), 10 ng ml^−1 each, 6 days. The procedure:
as §1

For IFNγ, the “Growth inhibition of PTPN2- or STUB1-null cells” value in the test on DU145 cells and in the test with PC-3 cells was “sensitized PTPN2- or STUB1-null prostate tumour cells to growth inhibition” in each case.

These data come from publication PMC9388626, “STUB1 is an intracellular checkpoint for interferon gamma sensing” (Scientific Reports, 2022).
